How the values were obtained:
[1] = xn = mol fraction of the nth substance listed; conditions: 101 kPa, Liquid
[2] = refractive index (Na D-line) (dimensionless); xn = mol fraction of the nth substance listed; conditions: 101 kPa, Liquid
[3] = 101 kPa, Liquid
[4] = refractive index (Na D-line) (dimensionless); conditions: 101.33 kPa, Liquid

CCOC(=O)CC(=O)OCC [diethyl 1,3-propanedioate] + C1COCCO1
Conditions	mass density, 298.15 K [kg/m3]	mass density, 303.15 K [kg/m3]	mass density, 308.15 K [kg/m3]	refractive index, 298.15 K	refractive index, 303.15 K	refractive index, 308.15 K	speed of sound, 298.15 K [m/s]	viscosity, 298.15 K [mPa·s]	viscosity, 303.15 K [mPa·s]	viscosity, 308.15 K [mPa·s]
[1], x2 = 0	1049.6	1044.2	1038.8	–	–	–	1304	1.941	1.755	1.602
[1], x2 = 0.1005	1048.1	1042.8	1037.4	–	–	–	1308	1.858	1.698	1.537
[1], x2 = 0.1982	1046.6	1041.2	1035.8	–	–	–	1312	1.777	1.626	1.476
[1], x2 = 0.2959	1044.9	1039.6	1034.2	–	–	–	1316	1.7	1.556	1.413
[1], x2 = 0.3959	1043	1037.7	1032.3	–	–	–	1320	1.619	1.484	1.349
[1], x2 = 0.4959	1041	1035.6	1030.2	–	–	–	1324	1.542	1.415	1.287
[1], x2 = 0.5951	1038.8	1033.4	1028	–	–	–	1328	1.465	1.346	1.227
[1], x2 = 0.6944	1036.4	1030.9	1025.5	–	–	–	1332	1.391	1.28	1.17
[1], x2 = 0.796	1033.7	1028.2	1022.8	–	–	–	1337	1.316	1.214	1.111
[1], x2 = 0.8977	1030.9	1025.4	1019.9	–	–	–	1341	1.249	1.153	1.057
[2], x2 = 0	–	–	–	1.4132	1.4108	1.4085	–	–	–	–
[2], x2 = 0.1005	–	–	–	1.4135	1.4113	1.409	–	–	–	–
[2], x2 = 0.1982	–	–	–	1.4139	1.412	1.4093	–	–	–	–
[2], x2 = 0.2959	–	–	–	1.4143	1.4123	1.4095	–	–	–	–
[2], x2 = 0.3959	–	–	–	1.4147	1.4127	1.4099	–	–	–	–
[2], x2 = 0.4959	–	–	–	1.415	1.4137	1.4103	–	–	–	–
[2], x2 = 0.5951	–	–	–	1.4161	1.4147	1.4113	–	–	–	–
[2], x2 = 0.6944	–	–	–	1.4171	1.4157	1.4122	–	–	–	–
[2], x2 = 0.796	–	–	–	1.4181	1.4167	1.4132	–	–	–	–
[2], x2 = 0.8977	–	–	–	1.4192	1.4231	1.4141	–	–	–	–

CCOC(C)=O [ethyl acetate]
Conditions	mass density, 298.15 K [kg/m3]	mass density, 303.15 K [kg/m3]	mass density, 308.15 K [kg/m3]	refractive index, 298.15 K	refractive index, 303.15 K	refractive index, 308.15 K	speed of sound, 298.15 K [m/s]	viscosity, 298.15 K [mPa·s]	viscosity, 303.15 K [mPa·s]	viscosity, 308.15 K [mPa·s]
[3]	894.2	887.9	881.6	–	–	–	1155	0.438	0.414	0.392
[4]	–	–	–	1.3713	1.3673	1.3631	–	–	–	–

CCOC(C)=O [ethyl acetate] + C1COCCO1
x2 = 0
Conditions	mass density, 298.15 K [kg/m3]	mass density, 303.15 K [kg/m3]	mass density, 308.15 K [kg/m3]	refractive index, 298.15 K	refractive index, 303.15 K	refractive index, 308.15 K	speed of sound, 298.15 K [m/s]	viscosity, 298.15 K [mPa·s]	viscosity, 303.15 K [mPa·s]	viscosity, 308.15 K [mPa·s]
[1]	894.2	887.9	881.6	–	–	–	1155	0.438	0.414	0.392
[2]	–	–	–	1.3713	1.3673	1.3631	–	–	–	–

ClC=C(Cl)Cl [trichloroethene]
Conditions	mass density, 298.15 K [kg/m3]	mass density, 303.15 K [kg/m3]	mass density, 308.15 K [kg/m3]	refractive index, 298.15 K	refractive index, 303.15 K	refractive index, 308.15 K	speed of sound, 298.15 K [m/s]	viscosity, 298.15 K [mPa·s]	viscosity, 303.15 K [mPa·s]	viscosity, 308.15 K [mPa·s]
[3]	1455.4	1447	1438.5	–	–	–	1027	0.573	0.547	0.521
[4]	–	–	–	1.476	1.4729	1.4698	–	–	–	–

ClC=C(Cl)Cl [trichloroethene] + C1COCCO1
Conditions	mass density, 298.15 K [kg/m3]	mass density, 303.15 K [kg/m3]	mass density, 308.15 K [kg/m3]	refractive index, 298.15 K	refractive index, 303.15 K	refractive index, 308.15 K	speed of sound, 298.15 K [m/s]	viscosity, 298.15 K [mPa·s]	viscosity, 303.15 K [mPa·s]	viscosity, 308.15 K [mPa·s]
[1], x2 = 0	1455.4	1447	1438.5	–	–	–	1027	0.573	0.547	0.521
[1], x2 = 0.1006	1412.7	1404.6	1396.4	–	–	–	1059	0.635	0.602	0.569
[1], x2 = 0.201	1370.1	1362.2	1354.2	–	–	–	1091	0.697	0.658	0.618
[1], x2 = 0.2983	1327.9	1320.3	1312.8	–	–	–	1122	0.758	0.712	0.665
[1], x2 = 0.3995	1284.4	1277.2	1270	–	–	–	1152	0.821	0.768	0.714
[1], x2 = 0.507	1238.6	1231.5	1224.5	–	–	–	1187	0.888	0.827	0.767
[1], x2 = 0.5993	1199.3	1192.5	1185.7	–	–	–	1215	0.945	0.878	0.812
[1], x2 = 0.6969	1158.5	1152.1	1145.6	–	–	–	1246	1.006	0.933	0.859
[1], x2 = 0.802	1114	1107.7	1101.5	–	–	–	1276	1.072	0.991	0.911
[1], x2 = 0.9003	1072.1	1066.2	1060	–	–	–	1307	1.133	1.046	0.959
[2], x2 = 0	–	–	–	1.476	1.4729	1.4698	–	–	–	–
[2], x2 = 0.1006	–	–	–	1.4704	1.4673	1.4643	–	–	–	–
[2], x2 = 0.201	–	–	–	1.4648	1.4618	1.4587	–	–	–	–
[2], x2 = 0.2983	–	–	–	1.4592	1.4562	1.4532	–	–	–	–
[2], x2 = 0.3995	–	–	–	1.4536	1.4507	1.4477	–	–	–	–
[2], x2 = 0.507	–	–	–	1.4476	1.4446	1.4417	–	–	–	–
[2], x2 = 0.5993	–	–	–	1.4426	1.4396	1.4366	–	–	–	–
[2], x2 = 0.6969	–	–	–	1.4373	1.4344	1.4315	–	–	–	–
[2], x2 = 0.802	–	–	–	1.4314	1.4285	1.4256	–	–	–	–
[2], x2 = 0.9003	–	–	–	1.426	1.4231	1.4202	–	–	–	–
